Like-named read-outs stand apart in the source and are kept apart here.
Assays:
[1] = tested on: HIV‐1 LAI; test: Anti-HIV-1 activity in T CD4+ H9 cells, LAI reference strain; format: cell-based; details: Human immunodeficiency virus 1, mean from three experiments
Description: (§1) Peripheral blood mononuclear cells (PBMC) from healthy donors were isolated and stimulated for 3 days with […] of phytohemagglutinin‐P (PHA‐P, Sigma) and 5 IU/mL of recombinant human interleukin‐2 (rHuIL‐2, Roche). PBMC were growth under CO2 in a humid atmosphere at 37 °C in RPMI‐1640 GlutaMAX medium supplemented with antibiotics (penicillin, streptomycin, neomycin), 10 % fetal calf serum (FCS, previously inactivated by heat) and 10 UI/mL of rHuIL‐2. The HIV‐1 LAI strain was previously described.[19] Resistant viral strains are from the NIH AIDS Research & Reference Reagent Program (HIV‐1–52534‐2, HIV‐1–56252‐1, HIV‐1–71361‐1, and HIV‐1–7324‐1) carry mutations in RT.[16]
(§2) PHA‐P activated PBMCs (1.5×10^5 cells) were pre‐treated for 30 min by increasing concentrations of the various compounds to be tested and then infected with […] infectious tissue culture doses 50 % (TCID50) of the HIV‐1‐LAI. Supernatants were collected at day 7 post infection and stored at ‐ 20 °C. Viral replication was measured by quantifying reverse transcriptase activity in cell culture supernatants by the use of Lenti kit RT (Cavidi). Cytotoxicity of the compounds was evaluated in uninfected PHA‐P PBMC by MTT assay (Promega) on day 7. Experiments were performed in triplicate and repeated with another blood donors. Data analyses were performed using SoftMax® Pro 4.6 software (Molecular Devices). Percent of inhibition of RT activity or cell viability were plotted versus compound concentration and fitted with quadratic curves to determine 50 % effective concentration (EC50) and 50 % cytotoxic concentration (CC50). The viral resistant strains were amplified and the viral stocks titrated using cells of the H9 line.[20] More specifically, with regard to the antiviral test, the cells were distributed in the wells of 96‐well microplates at the rate of 50,000 cells per well. They were then pretreated for 30 minutes with increasing concentrations of the various compounds to be tested and then infected with 125 TCID50 of the various resistant strains. Seven and 14 days after infection, culture supernatants were collected and frozen at −20 ° C until measurement of viral replication via quantification of the enzymatic activity of the TI. The EC50 was calculated as previously described. A possible cytotoxicity of the molecules towards the cells of the H9 line was assessed by microscopic observation throughout the cell cultures.

[2] = Cytotoxicity in uninfected PHA-P PBMC by MTT assay; format: cell-based, human; details: human
Description: as §1, §2

[3] = tested on: HIV‐1‐52534‐2; test: Anti-HIV-1 activity in T CD4+ H9 cells, resistant strain 52534-2; format: cell-based; details: strain 52534‐2, T CD4+ H9 cells; for EC50: Human immunodeficiency virus 1, mean from three experiments
Description: as §1, §2

[4] = tested on: HIV‐1‐56252‐1; test: Anti-HIV-1 activity in T CD4+ H9 cells, resistant strain 56252-1; format: cell-based; details: Human immunodeficiency virus 1; strain 56252‐1, T CD4+ H9 cells, mean from three experiments
Description: as §1, §2

[5] = tested on: HIV‐1‐7324‐1; test: Anti-HIV-1 activity in T CD4+ H9 cells, resistant strain 7324-1; format: cell-based; details: Human immunodeficiency virus 1; strain 7324‐1, T CD4+ H9 cells, mean from three experiments
Description: as §1, §2

[6] = tested on: HIV‐1 LAI strain; test: Anti-HIV-1 LAI activity in PHA-P activated PBMC (RT activity in supernatants); format: cell-based; details: for EC50: read-out: EC50, effective concentration of drug required to reduce viral replication by 50 %
Description: as §1, §2

[7] = tested on: HIV‐1‐71361‐1; test: Anti-HIV-1 activity in T CD4+ H9 cells, resistant strain 71361-1; format: cell-based; details: Human immunodeficiency virus 1, H9
Description: as §1, §2

[8] = tested on: HIV‐1 LAI strain; details: ref 4b, cited from earlier work; for SI = CC50/EC50: HIV-1 LAI in PBMC; for EC50: read-out: EC50, effective concentration of drug required to reduce viral replication by 50 %, HIV-1 LAI in human PBMC
[9] = tested on: human peripheral blood mononuclear cells (PBMC); design: method as in earlier work; details: ref 4b, cited from earlier work; for CC50: read-out: CC50, cytotoxic concentration of drug required to reduce cell growth by 50 %
[10] = tested on: human peripheral blood mononuclear cells (PBMC); test: Cytotoxicity in uninfected PHA-P PBMC by MTT assay; format: cell-based
Description: as §1, §2

[11] = Human immunodeficiency virus 1, PBMC, 168 h
[12] = uninfected PBMC, MTT, day 7, mean from 3 blood donors, read-out: CC50, cytotoxic concentration of drug required to reduce cell growth by 50 %
[13] = Human immunodeficiency virus 1, 168 h, HIV-1 LAI in human PBMC, day 7 post infection, mean from 3 blood donors

Compound	EC50 [1] [µM]	CC50 at 7 days [2] [µM]	EC50 [3] [µM]	EC50 [4] [µM]	EC50 [5] [µM]	EC50 [6, 11] [µM]	EC50 [7] [µM]	SI = CC50/EC50 [8]	SI = CC50/EC50 ([8]; listed as Tenofovir)	EC50 [8] [µM]	CC50 [9] [µM]	cytotoxicity (in words) ([10]; PBMC)	CC50 at 7 days [2, 12] [µM]	SI = CC50/EC50 ([6]; HIV-1 LAI in PBMC)	EC50 [6, 13] [µM]	cytotoxicity (in words) [10]	antiviral activity (in words) [3]	anti‐HIV‐1 activity, fold greater than that of the D‐like enantiomer ([6]; HIV-1 LAI in PBMC, EC50 ratio versus D-like bis(POM) prodrug) [fold]	anti‐HIV‐1 activity, fold greater than Tenofovir ([6]; HIV-1 LAI in PBMC, EC50 ratio versus Tenofovir) [fold]	cytotoxicity (in words) [9]
CC(C)(C)C(=O)OCOP(=O)(CO[C@H]1C[C@@H](n2cnc3c(N)ncnc32)C=C1F)OCOC(=O)C(C)(C)C [(+)‐9, bis‐(Pivaloyloxymethyl)‐((1’S,4’R)‐4‐(6‐amino‐9H‐purin‐9‐yl)‐2‐fluorocyclopent‐2‐en‐1‐yl)oxymethyl‐phosphonate]	1.85	≥ 10	≥ 10	0.96	0.24	0.51	0.68													
C[C@H](Cn1cnc2c(N)ncnc21)OCP(=O)(O)O [(R)‐PMPA, reference compound]	0.13		6.1	1.65	0.1		0.1	≥9.1	9.1	1.1	≥ 10									
Nc1ncnc2c1ncn2[C@@H]1C=C(F)[C@H](OCP(=O)(O)O)C1 [(−)‐1]	0.33		≥ 10	0.69	0.42		0.9					No cytotoxicity	≥ 10	≥52.6	0.19					
Nc1ncnc2c1ncn2[C@H]1C=C(F)[C@@H](OCP(=O)(O)O)C1 [(+)‐1]												No cytotoxicity	≥ 10	≥2.32	4.3					
CC(C)(C)C(=O)OCOP(=O)(CO[C@@H]1C[C@H](n2cnc3c(N)ncnc32)C=C1F)OCOC(=O)C(C)(C)C [(−)‐9, bis‐(Pivaloyloxymethyl)‐((1’R,4’S)‐4‐(6‐amino‐9H‐purin‐9‐yl)‐2‐fluorocyclopent‐2‐en‐1‐yl)oxymethyl‐phosphonate]	0.11	5.2	0.58	0.09	0.01	0.063	0.11									some cytotoxicity	remains significantly active	8	17	
Nc1ncnc2c1ncn2[C@H]1C=C(F)[C@@H](OCP(=O)(O)O)C1 (racemic) [(±)‐1]	0.66		≥ 10	10	0.17		3.73			0.88	≥ 10									without additional cytotoxicity

Reference: article PMC9825896, “Discovery of an L‐like Configuration for 3’‐Fluoro‐5’‐norcarbonucleoside Phosphonates as Potent Anti‐HIV Agents” (Chemmedchem, 2022)
